In patent publication US12018021B2 (UCB Biopharma SRL, priority 2018, dated 2024) one finds IC50 data, which are given here for seven compounds.

As usually defined, the IC50 is the concentration at which inhibition is half-maximal.

Molecules are shown by their SMILES.

The experiment deals with IgE-Tb / FcεRIα-Y131A-AF488 (Homo sapiens, UniProt P01854). The experiment in a line: IgE-Tb / FcεRIα-Y131A-AF488 FRET assay (protocol for examples 1 to 233). The format is binding. The following applies: examples 1 to 233: 5 nM IgE-Tb, 25 nM FcεRIα-Y131A-AF488, incubated 2 hours at room temperature; read-out: Y131A FRET IC50 range. Put shortly: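 Compounds (top final concentration usually 10 μM, 3-fold, 10 points, 2% DMSO) incubated 2 h at room temperature with IgE-Tb (5 nM) and FcεRIα-Y131A-AF488 (25 nM). Background from 200 nM unlabelled receptor subtracted; FRET ratio 520/495 nm after 330 nm excitation gave percent inhibition, fitted four-parameter for IC50.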
Sequence of IgE-Tb / FcεRIα-Y131A-AF488 (P01854 1-427 limits assumed, stated change not applied): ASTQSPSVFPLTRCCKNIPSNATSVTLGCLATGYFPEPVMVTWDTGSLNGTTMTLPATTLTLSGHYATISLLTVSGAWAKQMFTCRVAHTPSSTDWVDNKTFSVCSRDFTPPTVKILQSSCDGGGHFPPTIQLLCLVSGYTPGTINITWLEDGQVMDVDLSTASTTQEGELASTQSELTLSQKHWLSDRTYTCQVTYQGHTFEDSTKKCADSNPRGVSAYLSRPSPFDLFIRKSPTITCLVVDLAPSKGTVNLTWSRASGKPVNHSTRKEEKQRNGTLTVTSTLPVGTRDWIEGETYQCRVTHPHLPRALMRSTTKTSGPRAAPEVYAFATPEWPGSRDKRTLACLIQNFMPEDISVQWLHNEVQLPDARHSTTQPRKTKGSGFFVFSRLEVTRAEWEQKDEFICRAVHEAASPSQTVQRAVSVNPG
Take `COc1nn(C)cc1Nc1nncn1[C@H]1CCc2sc(NC(=O)C3CC3)c(C(=O)NCC3CC3)c2C1` [Example 227, (5S)-2-(cyclopropanecarbonylamino)-N-(cyclopropylmethyl)-5-[3-[(3-methoxy-1-methy-pyrazol-4-yl)amino]-1,2,4-triazol-4-yl]-4,5,6,7-tetrahydrobenzothiophene-3-carboxamide]: the IC50 is less than 1000 nM.

As for `CCc1cc(Nc2nncn2[C@H]2CCc3sc(NC(=O)C4CC4)c(C(=O)NCC4CC4)c3C2)n(C)n1` [Example 228, (5S)-2-(cyclopropanecarbonylamino)-N-(cyclopropylmethyl)-5-[3-[(5-ethyl-2-methyl-pyrazol-3-yl)amino]-1,2,4-triazol-4-yl]-4,5,6,7-tetrahydrobenzothiophene-3-carboxamide], the IC50 is less than 1000 nM.

Regarding `Cn1nc(C(F)F)cc1Nc1nncn1[C@H]1CCc2sc(NC(=O)C3CC3)c(C(=O)NCC3CC3)c2C1` [Example 229, (5S)-2-(Cyclopropanecarbonylamino)-N-(cyclopropylmethyl)-5-[3-[[5-(difluoromethyl)-2-methyl-pyrazol-3-yl]amino]-1,2,4-triazol-4-yl]-4,5,6,7-tetrahydrobenzothiophene-3-carboxamide], the IC50 is less than 1000 nM.

Consider `Cc1cn(C)nc1Nc1nncn1[C@H]1CCc2sc(NC(=O)C3CC3)c(C(=O)NCC3CC3)c2C1` [Example 230, (5S)-2-(Cyclopropanecarbonylamino)-N-(cyclopropylmethyl)-5-[3-[(1,4-dimethylpyrazol-3-yl)amino]-1,2,4-triazol-4-yl]-4,5,6,7-tetrahydrobenzothiophene-3-carboxamide], for which the IC50 was less than 1000 nM.

For `COC(=O)c1cc(Nc2nncn2[C@H]2CCc3sc(NC(=O)C4CC4)c(C(=O)NCC4CC4)c3C2)n(C)n1` [Example 231, Methyl 5-[[4-[(5S)-2-(cyclopropanecarbonylamino)-3-(cyclopropylmethylcarbamoyl)-4,5,6,7-tetrahydrobenzothiophen-5-yl]-1,2,4-triazol-3-yl]amino]-1-methyl-pyrazole-3-carboxylate], the IC50 is less than 1000 nM.

Consider `Cn1nc(C(F)(F)F)cc1Nc1nccn1[C@H]1CCc2sc(NC(=O)C3CC3)c(C(=O)NCC3CC3)c2C1` [Example 232, (5S)-2-(Cyclopropanecarbonylamino)-N-(cyclopropylmethyl)-5-[2-[[2-methyl-5-(trifluoromethyl)pyrazol-3-yl]amino]imidazol-1-yl]-4,5,6,7-tetrahydrobenzothiophene-3-carboxamide], for which the IC50 is less than 1000 nM.

On to `Cn1nc(C(=O)O)cc1Nc1nncn1[C@H]1CCc2sc(NC(=O)C3CC3)c(C(=O)NCC3CC3)c2C1` [Example 233, 5-[[4-[(5S)-2-(Cyclopropanecarbonylamino)-3-(cyclopropylmethylcarbamoyl)-4,5,6,7-tetrahydrobenzothiophen-5-yl]-1,2,4-triazol-3-yl]amino]-1-methyl-pyrazole-3-carboxylic acid], for which the IC50 was less than 1000 nM.
